# In US20230085307A1, “PYRIDAZINONE COMPOUND AND HERBICIDE” (NISSAN CHEMICAL CORPORATION, priority 2019, published 2023):
# Key:
# [1] = tested on: persian speedwell; test: Test Example 4: herbicidal effect by soil treatment (Table 19, symbol R); type: in vivo, Persian speedwell (Veronica persica); conditions: amount of applied herbicide 320 g/ha
# How it was run: (§1)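 Pre-emergence style soil spray: seeds under ~1.5 cm sterilized diluvial soil received a uniform coat of emulsion diluted to the predetermined herbicide amount. Greenhouse 25–30° C; readout at week three on previously defined criteria.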
# [2] = tested on: barnyard grass; test: Test Example 3: herbicidal effect by foliage application, Wagner pot (Table 18, symbol H); type: in vivo, barnyard grass (Echinochloa crus-galli); conditions: amount of applied herbicide 320 g/ha
# How it was run: (§2)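 Plants were sown in alluvial soil held under 0.1–0.5 cm standing water and grown 14 days in a greenhouse at 25–30 °C. An emulsifiable formulation, water-diluted to the set dose, was then sprayed onto the foliage, and effects were scored three weeks later using previously defined criteria.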
# [3] = tested on: blackgrass; test: Test Example 5: herbicidal effect by foliage application, plastic box (Table 20, symbol J); type: in vivo, blackgrass (Alopecurus myosuroides); conditions: foliage application, AAH 320 g/ha, evaluated three weeks after application
# How it was run: (§3)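 Plants were sown into sterilized diluvial soil under about 1.5 cm cover and kept in a greenhouse at 25° C. to 30° C. Fourteen days on, foliage received an even spray of the diluted emulsion. Herbicidal or crop effect was judged three weeks afterwards.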
# [4] = tested on: barnyard grass; test: Test Example 4: herbicidal effect by soil treatment (Table 19, symbol H); type: in vivo, barnyard grass (Echinochloa crus-galli); conditions: amount of applied herbicide 320 g/ha
# How it was run: as §1
# [5] = tested on: southern crabgrass; test: Test Example 5: herbicidal effect by foliage application, plastic box (Table 20, symbol F); type: in vivo, southern crabgrass (Digitaria ciliaris); conditions: foliage application, AAH 320 g/ha, evaluated three weeks after application
# How it was run: as §3
# [6] = tested on: barnyard grass; test: Test Example 5: herbicidal effect by foliage application, plastic box (Table 20, symbol H); type: in vivo, barnyard grass (Echinochloa crus-galli); conditions: foliage application, AAH 320 g/ha, evaluated three weeks after application
# How it was run: as §3
# [7] = tested on: persian speedwell; test: Test Example 5: herbicidal effect by foliage application, plastic box (Table 20, symbol R); type: in vivo, Persian speedwell (Veronica persica); conditions: foliage application, AAH 320 g/ha, evaluated three weeks after application
# How it was run: as §3
# [8] = tested on: late watergrass; test: Test Example 1: herbicidal activity, application before weed generation under submerged conditions (Table 16, symbol A); type: in vivo, late watergrass (Echinochloa oryzicola); conditions: 320 g/ha applied herbicide
# How it was run: (§4)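 Submerged Wagner pots (alluvial soil, 4 cm water) sown with weed seeds and planted with 2.5-leaf rice seedlings; emulsifiable concentrate diluted in water applied to water surface on sowing day. Held in greenhouse at 25-30 °C; injury scored 0-5 by herbicidal rate after three weeks.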
# [9] = tested on: redroot pigweed; test: Test Example 4: herbicidal effect by soil treatment (Table 19, symbol N); type: in vivo, redroot pigweed (Amaranthus retroflexus); conditions: amount of applied herbicide 320 g/ha
# How it was run: as §1
# [10] = tested on: chickweed; test: Test Example 4: herbicidal effect by soil treatment (Table 19, symbol P); type: in vivo, common chickweed (Stellaria media); conditions: amount of applied herbicide 320 g/ha
# How it was run: as §1
# [11] = tested on: wild oat; test: Test Example 5: herbicidal effect by foliage application, plastic box (Table 20, symbol I); type: in vivo, wild oat (Avena fatua); conditions: foliage application, AAH 320 g/ha, evaluated three weeks after application
# How it was run: as §3
# [12] = tested on: Japanese bulrush; test: Test Example 2: herbicidal activity, application during weed generation under submerged conditions (Table 17, symbol B); type: in vivo, Japanese bulrush (Schoenoplectus juncoides); conditions: AAH 320 g/ha; application during weed generation, submerged conditions
# How it was run: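 Wagner pot, alluvial soil, 4 cm flood; mixed sowing of all species; greenhouse 25° C.–30° C. Emulsifiable formulation, water-diluted to predetermined dose, applied to paddy water at 1–2 leaf stage. Effect rated at 3 wk using the earlier test's scoring criteria.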
# [13] = tested on: rice flat sedge; test: Test Example 3: herbicidal effect by foliage application, Wagner pot (Table 18, symbol E); type: in vivo, rice flat sedge (Cyperus iria); conditions: amount of applied herbicide 320 g/ha
# How it was run: as §2
# [14] = tested on: velvetleaf; test: Test Example 4: herbicidal effect by soil treatment (Table 19, symbol M); type: in vivo, velvetleaf (Abutilon theophrasti); conditions: amount of applied herbicide 320 g/ha
# How it was run: as §1
# [15] = tested on: oval-leafed pondweed; test: Test Example 1: herbicidal activity, application before weed generation under submerged conditions (Table 16, symbol C); type: in vivo, oval-leafed pondweed (Monochoria vaginalis); conditions: 320 g/ha applied herbicide
# How it was run: as §4
# [16] = tested on: green foxtail; test: Test Example 4: herbicidal effect by soil treatment (Table 19, symbol G); type: in vivo, green foxtail (Setaria viridis); conditions: amount of applied herbicide 320 g/ha
# How it was run: as §1
Structure (SMILES),herbicidal effect on R: persian speedwell [1],herbicidal effect on H: barnyard grass [2],"J: blackgrass, herbicidal effect (criteria 0-5) [3]",herbicidal effect on H: barnyard grass [4],"F: southern crabgrass, herbicidal effect (criteria 0-5) [5]","H: barnyard grass, herbicidal effect (criteria 0-5) [6]","R: persian speedwell, herbicidal effect (criteria 0-5) [7]",Herbicidal effect on A: late watergrass (grade 0-5) [8],herbicidal effect on N: redroot pigweed [9],herbicidal effect on P: chickweed [10],"I: wild oat, herbicidal effect (criteria 0-5) [11]","herbicidal effect rating, B: Japanese bulrush [12]",herbicidal effect on E: rice flat sedge [13],herbicidal effect on M: velvetleaf [14],Herbicidal effect on C: oval-leafed pondweed (grade 0-5) [15],herbicidal effect on G: green foxtail [16]
Cc1nn(C)c(=O)c(-c2c(-c3ccc(OC(F)F)cc3)sc3ccc(F)cc23)c1OC(=O)C1CCCO1 (centres unmarked) [2-289],5 (Herbicidal rate of 90% or more (almost completely withered)),5 (Herbicidal rate of 90% or more (almost completely withered)),4 (Herbicidal rate of 70% or more and less than 90%),5 (Herbicidal rate of 90% or more (almost completely withered)),3 (Herbicidal rate of 40% or more and less than 70%),5 (Herbicidal rate of 90% or more (almost completely withered)),5 (Herbicidal rate of 90% or more (almost completely withered)),4 (Herbicidal rate of 70% or more and less than 90%),5 (Herbicidal rate of 90% or more (almost completely withered)),5 (Herbicidal rate of 90% or more (almost completely withered)),4 (Herbicidal rate of 70% or more and less than 90%),3 (Herbicidal rate of 40% or more and less than 70%),5 (Herbicidal rate of 90% or more (almost completely withered)),5 (Herbicidal rate of 90% or more (almost completely withered)),3 (Herbicidal rate of 40% or more and less than 70%),5 (Herbicidal rate of 90% or more (almost completely withered))
CCOC(=O)Oc1c(C)nn(C)c(=O)c1-c1c(-c2ccc(OC(F)F)cc2)sc2ccc(F)cc12 [2-292],5 (Herbicidal rate of 90% or more (almost completely withered)),5 (Herbicidal rate of 90% or more (almost completely withered)),4 (Herbicidal rate of 70% or more and less than 90%),5 (Herbicidal rate of 90% or more (almost completely withered)),5 (Herbicidal rate of 90% or more (almost completely withered)),5 (Herbicidal rate of 90% or more (almost completely withered)),5 (Herbicidal rate of 90% or more (almost completely withered)),5 (Herbicidal rate of 90% or more (almost completely withered)),5 (Herbicidal rate of 90% or more (almost completely withered)),4 (Herbicidal rate of 70% or more and less than 90%),3 (Herbicidal rate of 40% or more and less than 70%),5 (Herbicidal rate of 90% or more (almost completely withered)),4 (Herbicidal rate of 70% or more and less than 90%),3 (Herbicidal rate of 40% or more and less than 70%),4 (Herbicidal rate of 70% or more and less than 90%),5 (Herbicidal rate of 90% or more (almost completely withered))
Cc1nn(C)c(=O)c(-c2c(-c3ccc(OC(F)F)cc3)sc3ccc(F)cc23)c1OC(=O)OCCCl [2-293],5 (Herbicidal rate of 90% or more (almost completely withered)),5 (Herbicidal rate of 90% or more (almost completely withered)),5 (Herbicidal rate of 90% or more (almost completely withered)),5 (Herbicidal rate of 90% or more (almost completely withered)),5 (Herbicidal rate of 90% or more (almost completely withered)),5 (Herbicidal rate of 90% or more (almost completely withered)),5 (Herbicidal rate of 90% or more (almost completely withered)),5 (Herbicidal rate of 90% or more (almost completely withered)),5 (Herbicidal rate of 90% or more (almost completely withered)),4 (Herbicidal rate of 70% or more and less than 90%),3 (Herbicidal rate of 40% or more and less than 70%),3 (Herbicidal rate of 40% or more and less than 70%),5 (Herbicidal rate of 90% or more (almost completely withered)),5 (Herbicidal rate of 90% or more (almost completely withered)),4 (Herbicidal rate of 70% or more and less than 90%),5 (Herbicidal rate of 90% or more (almost completely withered))
Cc1nn(C)c(=O)c(-c2c(-c3ccc(OC(F)F)cc3)sc3ccc(F)cc23)c1OC(=S)Sc1ccccc1 [2-298],1 (Herbicidal rate of 5% or more and less than 20%),5 (Herbicidal rate of 90% or more (almost completely withered)),4 (Herbicidal rate of 70% or more and less than 90%),0 (Herbicidal rate of 5% or less (almost no effect)),3 (Herbicidal rate of 40% or more and less than 70%),5 (Herbicidal rate of 90% or more (almost completely withered)),5 (Herbicidal rate of 90% or more (almost completely withered)),3 (Herbicidal rate of 40% or more and less than 70%),3 (Herbicidal rate of 40% or more and less than 70%),0 (Herbicidal rate of 5% or less (almost no effect)),4 (Herbicidal rate of 70% or more and less than 90%),3 (Herbicidal rate of 40% or more and less than 70%),5 (Herbicidal rate of 90% or more (almost completely withered)),2 (Herbicidal rate of 20% or more and less than 40%),3 (Herbicidal rate of 40% or more and less than 70%),0 (Herbicidal rate of 5% or less (almost no effect))
Cc1nn(C)c(=O)c(-c2c(-c3ccc(OC(F)F)cc3)sc3ccc(F)cc23)c1OCC(=O)c1ccccc1 [2-305],3 (Herbicidal rate of 40% or more and less than 70%),5 (Herbicidal rate of 90% or more (almost completely withered)),0 (Herbicidal rate of 5% or less (almost no effect)),0 (Herbicidal rate of 5% or less (almost no effect)),1 (Herbicidal rate of 5% or more and less than 20%),5 (Herbicidal rate of 90% or more (almost completely withered)),5 (Herbicidal rate of 90% or more (almost completely withered)),3 (Herbicidal rate of 40% or more and less than 70%),4 (Herbicidal rate of 70% or more and less than 90%),1 (Herbicidal rate of 5% or more and less than 20%),1 (Herbicidal rate of 5% or more and less than 20%),3 (Herbicidal rate of 40% or more and less than 70%),3 (Herbicidal rate of 40% or more and less than 70%),1 (Herbicidal rate of 5% or more and less than 20%),2 (Herbicidal rate of 20% or more and less than 40%),0 (Herbicidal rate of 5% or less (almost no effect))
